One data set relates to Enterococcus faecalis. In words: Tested for inhibition of visible growth of Streptococcus faecalis. It is filed as functional.
Data set [1] has as its system Streptococcus pyogenes. In words: (§1) Tested for the antimicrobial activity against Streptococcus pyogenes in mice. It is filed as functional.
The test system of data set [2] is Streptococcus pneumoniae. Nature of the data set: (§2) Tested for the antimicrobial activity against Streptococcus pneumoniae in mice. It is filed as functional.
Data set [3] deals with Escherichia coli. In words: Tested for inhibition of visible growth of Escherichia coli. It is filed as functional.
A further data set relates to Klebsiella aerogenes. In words: Tested for inhibition of visible growth of Enterobacter aerogenes. It is filed as functional.
Data set [4] in a line: Tested for the peak time in mice following 11.8 mg/kg, oral (administered as the sodium salt dissolved in H2O). It is filed as ADME, organism-based. On the set-up: dose 11.8 mg/kg, route oral. The settings on record: mouse, in vivo, read-out: Peak time (converted).
The test system of data set [5] is Escherichia coli. Nature of the data set: Tested for the antimicrobial activity against Escherichia coli in mice. It is filed as functional.
The test system of the next data set is Enterobacter cloacae. In words: Tested for inhibition of visible growth of Enterobacter cloacae. It is filed as functional.
Data set [6] deals with Staphylococcus aureus. In words: Tested for inhibition of visible growth of Staphylococcus aureus. It is filed as functional.
Data set [7] has as its system Staphylococcus aureus. Nature of the data set: Tested for inhibition of visible growth of Staphylococcus aureus, benzyl-penicillin sensitive. It is filed as functional.
A short description of data set [8]: (§3) Tested for the antimicrobial activity against Salmonella schottmuelleri in mice. It is filed as functional.
The subject of data set [9] is Streptococcus pneumoniae. Nature of the data set: Tested for inhibition of visible growth of Streptococcus pneumoniae. It is filed as functional.
In another data set the test system is Proteus mirabilis. Nature of the data set: Tested for inhibition of visible growth of Proteus mirabilis. It is filed as functional.
The next data set relates to Klebsiella pneumoniae. In words: Tested for inhibition of visible growth of Klebsiella pneumoniae. It is filed as functional.
The nature of data set [10]: Tested for inhibition of visible growth of Salmonella schottmuelleri. It is filed as functional.
Data set [11] concerns Streptococcus pyogenes. In words: Tested for inhibition of visible growth of Streptococcus pyogenes. It is filed as functional.
A short description of data set [12]: as §3. It is filed as functional. The source holds these as a separate data set.
Data set [13] is described as follows: tested for the peak time in mice following 6.9 mg/kg, oral (administered as the hydrochloride salt dissolved in H2O). It is filed as ADME, organism-based. Details: dose 6.9 mg/kg, route oral. The settings on record: mouse, in vivo, read-out: Peak time (converted).
Data set [14] concerns Streptococcus pyogenes. Described as §1. It is filed as functional. This is another data set of the same source.
Data set [15] has as its system Streptococcus pneumoniae. Described as §2. It is filed as functional. The source holds these as a separate data set.
Data set [16] has as its system Staphylococcus aureus. In words: Tested for the antimicrobial activity against Staphylococcus aureus. It is filed as functional.
The subject of data set [17] is Escherichia coli. Nature of the data set: Tested for the antimicrobial activity against Escherichia coli in mice perorally. It is filed as functional. The settings on record: po.
Data set [18] has as its system Staphylococcus aureus. Nature of the data set: Tested for the antimicrobial activity against Staphylococcus aureus, benzyl-penicillin sensitive in mice, perorally. It is filed as functional. The settings on record: po.
Data set [19] is filed under the species Mus musculus. Nature of the data set: Tested for the antimicrobial activity against Staphylococcus aureus, benzyl-penicillin sensitive in mice, perorally. To be noted: po.
For data set [20], the system named is Mus musculus. Nature of the data set: Tested for the antimicrobial activity against […], benzyl-penicillin sensitive in mice, subcutaneously. It is filed as functional. To be noted: sc.
Data set [21] has as its system Mus musculus. Nature of the data set: Tested for the antimicrobial activity against Streptococcus pyogenes (ST139) in mice, subcutaneously. It is filed as functional. The settings on record: sc.
In data set [22] the test system is Mus musculus. In words: Tested for the antimicrobial activity against Streptococcus pneumoniae (D137) in mice, subcutaneously. It is filed as functional. To be noted: sc.
Data set [23] concerns Mus musculus. Nature of the data set: Tested for the antimicrobial activity against Staphylococcus aureus (M240) in mice, subcutaneously. It is filed as functional. The settings on record: sc.
Data set [24] has as its system Mus musculus. Nature of the data set: Tested for the antimicrobial activity against Streptococcus pyogenes (St141) in mice, subcutaneously. It is filed as functional. The settings on record: sc.
The species entered for data set [25] is Mus musculus. Nature of the data set: Tested for the antimicrobial activity against Streptococcus pyogenes (St141) in mice, perorally. It is filed as functional. The settings on record: po.
The species entered for data set [26] is Mus musculus. In words: Tested for the antimicrobial activity against Staphylococcus aureus (M240) in mice, perorally. It is filed as functional. The settings on record: po.
The species entered for data set [27] is Mus musculus. In words: Tested for the antimicrobial activity against Streptococcus pneumoniae (D815) in mice, perorally. It is filed as functional. To be noted: po.
The subject of another data set is Pseudomonas aeruginosa. In words: Tested for inhibition of visible growth of Pseudomonas aeruginosa. It is filed as functional.
The species entered for data set [28] is Mus musculus. In words: Tested for the antimicrobial activity against Streptococcus pneumoniae (D137) in mice, perorally. To be noted: po. It is filed as functional.
For data set [29], the species on record is Mus musculus. In words: Tested for the antimicrobial activity against Staphylococcus aureus (M202) in mice, perorally. It is filed as functional. The settings on record: po.
For data set [30], the species on record is Mus musculus. Nature of the data set: Tested for the antimicrobial activity against Streptococcus pyogenes (ST139) in mice, perorally. It is filed as functional. To be noted: po.
Data set [31] concerns Mus musculus. In words: Tested for the antimicrobial activity against Streptococcus pneumoniae (D815) in mice, subcutaneously. It is filed as functional. To be noted: sc.
Data set [32] has as its system Mus musculus. In words: Tested for the antimicrobial activity against Staphylococcus aureus (M202) in mice, subcutaneously. It is filed as functional. The settings on record: sc.
The nature of a further data set: in vivo. The settings on record: mouse, po, 43 mg/kg.

In brackets after ≈: the same amount, converted by molar mass.

Experimental findings from ChEMBL document CHEMBL1121424, “Orally active cephalosporins and penicillins” (J Med Chem, 1980) are described below.

Description for in vivo: Tested for the peak time in mice following 43 mg/kg oral dose of cephalosporin

With `Cc1nnc(SCC2=C(C(=O)O)N3C(=O)C(NC(=O)[C@H](N)c4ccc5c(c4)OCO5)C3SC2)s1` (stereo partly drawn), the MIC against Enterococcus faecalis is 50 µg/mL (≈ 95.9 µM); in the data set with Escherichia coli [3] it was 12.5 µg/mL (≈ 24 µM); in the data set on Klebsiella aerogenes it was 25 µg/mL (≈ 47.9 µM); against Enterobacter cloacae, 25 µg/mL (≈ 47.9 µM); in the data set with Staphylococcus aureus [6], 3.1 µg/mL (≈ 5.94 µM); against Staphylococcus aureus [7], 0.2 µg/mL (≈ 0.383 µM). For the same compound, the MIC against Streptococcus pneumoniae [9] is 0.1 µg/mL (≈ 0.192 µM); in the data set with Proteus mirabilis it was above 100 µg/mL; with Klebsiella pneumoniae it was 6.2 µg/mL (≈ 11.9 µM); in [10] it was 1.6 µg/mL (≈ 3.07 µM); against Streptococcus pyogenes [11], 0.1 µg/mL (≈ 0.192 µM). Also, the median effective dose (ED50) in the data set with Streptococcus pyogenes [1] was 0.23 mg/kg; in the data set with Streptococcus pneumoniae [2] it was 0.79 mg/kg; with Escherichia coli [5], 10.6 mg/kg; in [8], 40 mg/kg; in data set [12] it was 8 mg/kg; in the data set on Streptococcus pyogenes [14], 0.84 mg/kg. For the same compound, the ED50 was determined as 1.3 mg/kg in the data set with Streptococcus pneumoniae [15], 0.29 mg/kg in the data set with Staphylococcus aureus [16], 33.9 mg/kg in the data set on Escherichia coli [17] and 0.8 mg/kg with Staphylococcus aureus [18]. For the same compound, the Tmax in data set [4] and in data set [13] was 30 min each time.
Regarding `Cn1nnnc1SCC1=C(C(=O)O)N2C(=O)C(NC(=O)[C@H](N)c3ccc4c(c3)OCO4)C2SC1` (stereo partly drawn), the minimum inhibitory concentration (MIC) against Enterococcus faecalis was found to be 50 µg/mL (≈ 98.9 µM); with Escherichia coli [3], 3.1 µg/mL (≈ 6.13 µM); in the data set on Klebsiella aerogenes, 3.1 µg/mL (≈ 6.13 µM); in the data set on Enterobacter cloacae, 6.2 µg/mL (≈ 12.3 µM); in the data set with Staphylococcus aureus [6], 1.6 µg/mL (≈ 3.16 µM); in the data set on Staphylococcus aureus [7], 0.2 µg/mL (≈ 0.396 µM). Besides, the MIC turned out to be 0.1 µg/mL (≈ 0.198 µM) in the data set with Streptococcus pneumoniae [9]; 25 µg/mL (≈ 49.5 µM) against Proteus mirabilis; 3.1 µg/mL (≈ 6.13 µM) in the data set with Klebsiella pneumoniae; 0.8 µg/mL (≈ 1.58 µM) in data set [10]; 0.05 µg/mL (≈ 0.0989 µM) with Streptococcus pyogenes [11]. In addition, the ED50 in the data set on Streptococcus pyogenes [1] was 0.14 mg/kg; in the data set on Streptococcus pneumoniae [2], 0.74 mg/kg; with Escherichia coli [5], 2.1 mg/kg; in data set [8], 16 mg/kg; in the data set listed under Mus musculus [19] it was above 2 mg/kg; in data set [12], below 3.1 mg/kg. Besides, the ED50 with Streptococcus pyogenes [14] is 0.37 mg/kg; with Streptococcus pneumoniae [15], above 10 mg/kg; with Mus musculus [20] it was 0.31 mg/kg.
Consider `CC1(C)SC2C(NC(=O)[C@H](N)c3ccc4c(c3)CCO4)C(=O)N2C1C(=O)O` (stereo partly drawn), for which the MIC against Enterococcus faecalis was 3.1 µg/mL (≈ 7.92 µM); against Escherichia coli [3] it was 25 µg/mL (≈ 63.9 µM); in the data set with Klebsiella aerogenes, above 100 µg/mL; with Enterobacter cloacae it was above 100 µg/mL; against Staphylococcus aureus [6], 100 µg/mL (≈ 255 µM); against Staphylococcus aureus [7], 0.05 µg/mL (≈ 0.128 µM). The MIC was above 100 µg/mL in the data set on Pseudomonas aeruginosa; at most 0.03 µg/mL with Streptococcus pneumoniae [9]; 12.5 µg/mL (≈ 31.9 µM) in the data set on Proteus mirabilis; 6.2 µg/mL (≈ 15.8 µM) with Klebsiella pneumoniae; 1.6 µg/mL (≈ 4.09 µM) in data set [10]; at most 0.03 µg/mL in the data set with Streptococcus pyogenes [11]. For the same compound, the ED50 in the data set on Mus musculus [21] came to 0.053 mg/kg; with Mus musculus [22], 0.14 mg/kg; with Mus musculus [23] it was 0.063 mg/kg; in the data set with Mus musculus [24], 0.07 mg/kg; in the data set listed under Mus musculus [25] it was 0.11 mg/kg; in the data set filed under Mus musculus [26] it was 0.4 mg/kg. The median effective dose (ED50) in the data set filed under Mus musculus [27] amounted to 0.16 mg/kg; in the data set filed under Mus musculus [28], 0.22 mg/kg; in the data set listed under Mus musculus [29], 0.41 mg/kg; in the data set filed under Mus musculus [30], 0.084 mg/kg; in the data set on Mus musculus [31] it was 0.078 mg/kg; in the data set with Mus musculus [32], 0.89 mg/kg.
As to `CC1(C)S[C@@H]2[C@H](NC(=O)[C@H](N)c3ccc(O)cc3)C(=O)N2[C@H]1C(=O)O` [AMOXICILLIN], the minimum inhibitory concentration (MIC) is 1.6 µg/mL (≈ 4.38 µM) in the data set on Enterococcus faecalis; 6.2 µg/mL (≈ 17 µM) against Escherichia coli [3]; above 100 µg/mL in the data set on Klebsiella aerogenes; above 100 µg/mL in the data set with Enterobacter cloacae; 100 µg/mL (≈ 274 µM) in the data set with Staphylococcus aureus [6]; 0.1 µg/mL (≈ 0.274 µM) against Staphylococcus aureus [7]. In addition, the MIC with Pseudomonas aeruginosa was above 100 µg/mL; against Streptococcus pneumoniae [9], at most 0.03 µg/mL; with Proteus mirabilis, 0.4 µg/mL (≈ 1.09 µM); in the data set on Klebsiella pneumoniae, 0.8 µg/mL (≈ 2.19 µM); in [10] it was 0.4 µg/mL (≈ 1.09 µM); against Streptococcus pyogenes [11] it was at most 0.03 µg/mL. The ED50 was 0.063 mg/kg in the data set with Mus musculus [21]; 0.14 mg/kg with Mus musculus [22]; 0.074 mg/kg in the data set on Mus musculus [23]; 0.06 mg/kg in the data set on Mus musculus [24]; 0.08 mg/kg in the data set listed under Mus musculus [25]; 0.31 mg/kg in the data set filed under Mus musculus [26]. In addition, the 50% effective dose (ED50) in the data set filed under Mus musculus [27] stood at 0.13 mg/kg; in the data set listed under Mus musculus [28], 0.25 mg/kg; in the data set listed under Mus musculus [29] it was 0.62 mg/kg; in the data set listed under Mus musculus [30], 0.073 mg/kg; with Mus musculus [31], 0.05 mg/kg; with Mus musculus [32] it was 0.62 mg/kg.
As to `CC1=C(C(=O)O)N2C(=O)[C@@H](NC(=O)[C@H](N)c3ccccc3)[C@H]2SC1` [CEPHALEXIN ANHYDROUS], the MIC against Enterococcus faecalis is at least 100 µg/mL; with Escherichia coli [3], 6.2 µg/mL (≈ 17.8 µM); in the data set on Klebsiella aerogenes it was 25 µg/mL (≈ 72 µM); in the data set with Enterobacter cloacae, 25 µg/mL (≈ 72 µM); in the data set with Staphylococcus aureus [6] it was 3.1 µg/mL (≈ 8.92 µM); against Staphylococcus aureus [7], 0.8 µg/mL (≈ 2.3 µM). The MIC against Streptococcus pneumoniae [9] worked out at 1.6 µg/mL (≈ 4.61 µM); with Proteus mirabilis it was 12.5 µg/mL (≈ 36 µM); in the data set with Klebsiella pneumoniae it was 3.1 µg/mL (≈ 8.92 µM); in data set [10] it was 3.1 µg/mL (≈ 8.92 µM); against Streptococcus pyogenes [11], 0.4 µg/mL (≈ 1.15 µM). The Tmax in “in vivo” is 15 min.
